{"source": "patent US8153408B2", "about": "“Biocatalytic racemisation of alpha-hydroxyketones” (BASF SE, priority 2006, dated 2012)", "key": {"[1]": {"test_system": "rehydrated lyophilised (resting) cells of Lactobacillus halotoleransi DSM 20190", "assay": "Biocatalytic racemisation of acyloins 5-6 by whole resting cells", "type": "cell-based, Lactobacillus halotolerans DSM 20190", "settings": "L. halotolerans DSM 20190 cells; for Relative Rate (initial rate of racemisation relative to (R)-1 arbitrarily set as standard (100%)): aqueous BIS-TRIS buffer pH 6, 42° C.; for Racemization (extent of racemisation under standard conditions after 24 h): pH 6, 42° C.", "method": "(§1) After 3 days, the cells were harvested by centrifugation (18000*g), lyophilised and stored at +4° C. For the biocatalytic racemisation, 50 mg of whole lyophilised cells were rehydrated in 0.5 ml aqueous BIS-TRIS buffer (50 mM, 10^−2 M MgCl2, pH 6) for 1 h at 42° C. with shaking at 150 rpm. Substrates 1-4 (5 mg) were added followed by shaking of the reaction mixture with 150 rpm at 42° C. for 24 h, 48 h and 72 h. Then the reaction mixture was extracted with ethyl acetate and the organic phase was dried over sodium sulfate. The organic phase was evaporated under reduced pressure and the residue was dissolved in HPLC-eluent. The determination the enantiomeric excess of the substrate was carried out by HPLC on a chiral stationary phase. Analysis of the enantiomeric composition versus time gave the initial rates of racemisation, which are represented as % with respect to substrate (R)-1 sert as standard (100%).\n(§2) The biocatalytic racemisation of acyloins 1-4 was performed using rehydrated lyophilised (resting) cells of Lactobacillus paracasei subsp. paracasei DSM 20207 in aqueous buffer at pH 6, the racemisation of acyloins 5-6 by using rehydrated lyophilised (resting) cells of Lactobacillus halotoleransi DSM 20190."}, "[2]": {"test_system": "rehydrated lyophilised (resting) cells of Lactobacillus paracasei subsp. paracasei DSM 20207", "assay": "Biocatalytic racemisation of acyloins 1-4 by whole resting cells", "type": "cell-based", "settings": "L. paracasei DSM 20207 cells; for Relative Rate (initial rate of racemisation relative to (R)-1 arbitrarily set as standard (100%)): aqueous BIS-TRIS buffer pH 6, 42° C.; for racemisation rate (in words): aqueous buffer at pH 6; for Racemization (extent of racemisation under standard conditions after 24 h): pH 6, 42° C.", "method": "as §1, §2"}}}
{"smiles": "O=C1c2ccccc2CC[C@H]1O", "note": "[(R)-5, (R)-2-Hydroxy-1,2,3,4-tetranaphtalin-1-one]", "values": [{"measurement": "racemisation (in words)", "setting": "[1]", "result": "high racemisation"}, {"measurement": "Relative Rate (initial rate of racemisation relative to (R)-1 arbitrarily set as standard (100%))", "setting": "[1]", "result": 77, "unit": "%"}, {"measurement": "Racemization (extent of racemisation under standard conditions after 24 h)", "setting": "[1]", "result": 92, "unit": "%"}]}
{"smiles": "O=C1c2ccccc2C[C@H]1O", "note": "[(R)-6, (R)-2-Hydroxyindane-1-one]", "values": [{"measurement": "racemisation (in words)", "setting": "[1]", "result": "high racemisation"}, {"measurement": "Relative Rate (initial rate of racemisation relative to (R)-1 arbitrarily set as standard (100%))", "setting": "[1]", "result": 58, "unit": "%"}, {"measurement": "Racemization (extent of racemisation under standard conditions after 24 h)", "setting": "[1]", "result": 84, "unit": "%"}]}
{"smiles": "CC(=O)[C@@H](C)O", "note": "[(R)-1, acetoin]", "values": [{"measurement": "Relative Rate (initial rate of racemisation relative to (R)-1 arbitrarily set as standard (100%))", "setting": "[2]", "result": 100, "unit": "%"}, {"measurement": "racemisation rate (in words)", "setting": "[2]", "result": "fast racemisation rate"}, {"measurement": "Racemization (extent of racemisation under standard conditions after 24 h)", "setting": "[2]", "result": 86, "unit": "%"}]}
{"smiles": "C[C@@H](O)C(=O)c1ccccc1", "note": "[(R)-4, (R)-2-hydroxypropiophenone]", "values": [{"measurement": "Relative Rate (initial rate of racemisation relative to (R)-1 arbitrarily set as standard (100%))", "setting": "[2]", "result": 65, "unit": "%"}, {"measurement": "racemisation rate (in words)", "setting": "[2]", "result": "slightly reduced"}, {"measurement": "Racemization (extent of racemisation under standard conditions after 24 h)", "setting": "[2]", "result": 46, "unit": "%"}]}
{"smiles": "CC(=O)[C@H](O)c1ccccc1", "note": "[(R)-3, (R)-phenylacetylcarbinol]", "values": [{"measurement": "Relative Rate (initial rate of racemisation relative to (R)-1 arbitrarily set as standard (100%))", "setting": "[2]", "result": 67, "unit": "%"}, {"measurement": "racemisation rate (in words)", "setting": "[2]", "result": "High racemisation rates"}, {"measurement": "Racemization (extent of racemisation under standard conditions after 24 h)", "setting": "[2]", "result": 50, "unit": "%"}]}
